Data from patent publication US20190119729A1, “METHOD OF DETECTING AND TREATING P. ACNES AND KIT THEREOF” (priority 2016, published 2019).
≈ marks a conversion by molar mass, not a printed value.

What was measured:
[1] = system: P. acnes clinical isolates (clindamycin resistant); test: Antimicrobial susceptibility of clindamycin resistant P. acnes clinical isolates against various antibiotics (Table 2); assay type: cell-based; conditions: for MIC: Cutibacterium acnes; for susceptibility of the strains as indicated by MIC values: all the clindamycin, erythromycin resistant strains of Table 2
Description: Various clinical isolates are obtained from patients carrying Clindamycin Resistant P. acnes and their antimicrobial susceptibility to fluoroquinolone antibiotics is studied vis-à-vis susceptibility to Clindamycin and Erythromycin.

[2] = system: P. acnes isolates; test: Antimicrobial susceptibility patterns of P. acnes isolates against different antibiotics (Table 1); assay type: cell-based; conditions: Cutibacterium acnes
Description: Table 1 below depicts the antimicrobial susceptibility patterns of P. acnes isolates against different antibiotics: […]

[3] = system: P. acnes; conditions: in those receiving prolonged antibiotic therapy with the drug (Leyden et al 1983); cited from earlier work
[4] = isolate V21A1, phylotype IA1, type IV, 23S rRNA A2059G
[5] = isolate V21A2, phylotype IB, type I, 23S rRNA A2058G
[6] = isolate V21A3, phylotype IB, type I, 23S rRNA A2058G
[7] = isolate V21A4, phylotype IB, type I, 23S rRNA A2058G
[8] = isolate V21A5, phylotype IA1, type IV, 23S rRNA A2059G
[9] = isolate V21A6, phylotype IA1, type IV, 23S rRNA A2059G
[10] = isolate V21A7, phylotype IA1, type IV, 23S rRNA A2059G
[11] = isolate V21A8, phylotype IA1, type IV, 23S rRNA A2059G
[12] = isolate V21A9, phylotype IB, type I, 23S rRNA A2058G
[13] = isolate V21A10, phylotype IB, type I, 23S rRNA A2058G
[14] = isolate V21B2, phylotype IB, type I, 23S rRNA A2058G
[15] = isolate V21B4, phylotype IB, type I, 23S rRNA A2058G
[16] = isolate V21B6, phylotype IB, type I, 23S rRNA A2058G
[17] = isolate V21B7, phylotype IB, type I, 23S rRNA A2058G
[18] = isolate V21B8, phylotype IB, type I, 23S rRNA A2058G

## N[C@@H]1CCCCN(c2c(F)cc3c(=O)c(C(=O)O)cn(C4CC4)c3c2Cl)C1 [Besifloxacin, besifloxacin]
[1]; P. acnes strain V21A-7
  MIC: 0.13 µg/mL (≈ 0.33 µM)
[1]; P. acnes strain V21B-1
  MIC: 0.5 µg/mL (≈ 1.27 µM)
[1]; P. acnes strain V21B-2
  MIC: 0.25 µg/mL (≈ 0.635 µM)
[1]; P. acnes strain V21B-3
  MIC: 0.25 µg/mL (≈ 0.635 µM)
[1]; P. acnes strain V21B-4
  MIC: 0.25 µg/mL (≈ 0.635 µM)
[1]; P. acnes strain V21B-5
  MIC: 0.5 µg/mL (≈ 1.27 µM)
[1]; P. acnes strain V21B-6
  MIC: 0.25 µg/mL (≈ 0.635 µM)
[1]; P. acnes strain V21B-7
  MIC: 0.25 µg/mL (≈ 0.635 µM)
[1]; P. acnes strain V21B-8
  MIC: 0.25 µg/mL (≈ 0.635 µM)
[1]
  susceptibility of the strains as indicated by MIC values: susceptible

## CC[C@H]1OC(=O)[C@H](C)[C@@H](O[C@H]2C[C@@](C)(OC)[C@@H](O)[C@H](C)O2)[C@H](C)[C@@H](O[C@@H]2O[C@H](C)C[C@H](N(C)C)[C@H]2O)[C@](C)(O)C[C@@H](C)C(=O)[C@H](C)[C@@H](O)[C@]1(C)O [Erythromycin, erythromycin]
[2]; [4]
  MIC: 50 to 200 µg/mL (≈ 68.1 to 273 µM)
[2]; [5]
  MIC: 50 to 200 µg/mL (≈ 68.1 to 273 µM)
[2]; [6]
  MIC: 100 to 200 µg/mL (≈ 136 to 273 µM)
[2]; [7]
  MIC: 100 to 200 µg/mL (≈ 136 to 273 µM)
[2]; [8]
  MIC: 100 to 200 µg/mL (≈ 136 to 273 µM)
[2]; [9]
  MIC: 100 to 200 µg/mL (≈ 136 to 273 µM)
[2]; [10]
  MIC: 100 to 200 µg/mL (≈ 136 to 273 µM)
[2]; [11]
  MIC: 100 to 200 µg/mL (≈ 136 to 273 µM)
[2]; [12]
  MIC: 100 to 200 µg/mL (≈ 136 to 273 µM)
[2]; [13]
  MIC: 100 to 200 µg/mL (≈ 136 to 273 µM)
[2]; [14]
  MIC: > 200 µg/mL
[2]; isolate V21B3, phylotype IB, type I, 23S rRNA A2058G
  MIC: > 200 µg/mL
[2]; [15]
  MIC: > 200 µg/mL
[2]; [16]
  MIC: > 200 µg/mL
[2]; [17]
  MIC: > 200 µg/mL
[2]; [18]
  MIC: > 200 µg/mL
[1]; P. acnes strain V21A-1
  MIC: 50 to 200 µg/mL (≈ 68.1 to 273 µM)
[1]; P. acnes strain V21A-2
  MIC: 50 to 200 µg/mL (≈ 68.1 to 273 µM)
[1]; P. acnes strain V21A-3
  MIC: 100 to 200 µg/mL (≈ 136 to 273 µM)
[1]; P. acnes strain V21A-4
  MIC: 100 to 200 µg/mL (≈ 136 to 273 µM)
[1]; P. acnes strain V21A-5
  MIC: 100 to 200 µg/mL (≈ 136 to 273 µM)
[1]; P. acnes strain V21A-6
  MIC: 100 to 200 µg/mL (≈ 136 to 273 µM)
[1]; P. acnes strain V21A-7
  MIC: 100 to 200 µg/mL (≈ 136 to 273 µM)
[1]; P. acnes strain V21A-8
  MIC: 100 to 200 µg/mL (≈ 136 to 273 µM)
[1]; P. acnes strain V21A-9
  MIC: 100 to 200 µg/mL (≈ 136 to 273 µM)
[1]; P. acnes strain V21A-10
  MIC: 100 to 200 µg/mL (≈ 136 to 273 µM)
[1]; P. acnes strain V21B-1
  MIC: > 200 µg/mL
[1]; P. acnes strain V21B-2
  MIC: > 200 µg/mL
[1]; P. acnes strain V21B-3
  MIC: > 200 µg/mL
[1]; P. acnes strain V21B-4
  MIC: 200 µg/mL (≈ 273 µM)
[1]; P. acnes strain V21B-5
  MIC: > 200 µg/mL
[1]; P. acnes strain V21B-6
  MIC: > 200 µg/mL
[1]; P. acnes strain V21B-7
  MIC: > 200 µg/mL
[1]; P. acnes strain V21B-8
  MIC: > 200 µg/mL
[3]
  increase of average MIC: 100 fold

## CC1CCc2c(N3CCC(O)CC3)c(F)cc3c(=O)c(C(=O)O)cn1c23 (centres unmarked) [Nadifloxacin, nadifloxacin]
[1]; P. acnes strain V21A-1
  MIC: < 0.13 µg/mL
[1]; P. acnes strain V21A-2
  MIC: 0.3 µg/mL (≈ 0.832 µM)
[1]; P. acnes strain V21A-4
  MIC: 0.3 µg/mL (≈ 0.832 µM)
[1]; P. acnes strain V21A-5
  MIC: < 0.13 µg/mL
[1]; P. acnes strain V21A-6
  MIC: 0.3 µg/mL (≈ 0.832 µM)
[1]; P. acnes strain V21A-8
  MIC: < 0.13 µg/mL
[1]; P. acnes strain V21A-9
  MIC: 0.3 µg/mL (≈ 0.832 µM)
[1]; P. acnes strain V21A-10
  MIC: 0.3 µg/mL (≈ 0.832 µM)
[1]; P. acnes strain V21B-1
  MIC: 0.5 µg/mL (≈ 1.39 µM)
[1]; P. acnes strain V21B-2
  MIC: 0.5 µg/mL (≈ 1.39 µM)
[1]; P. acnes strain V21B-3
  MIC: 0.5 µg/mL (≈ 1.39 µM)
[1]; P. acnes strain V21B-4
  MIC: 0.5 µg/mL (≈ 1.39 µM)
[1]; P. acnes strain V21B-5
  MIC: 0.5 µg/mL (≈ 1.39 µM)
[1]; P. acnes strain V21B-6
  MIC: 0.5 µg/mL (≈ 1.39 µM)
[1]; P. acnes strain V21B-7
  MIC: 0.5 µg/mL (≈ 1.39 µM)
[1]; P. acnes strain V21B-8
  MIC: 0.5 µg/mL (≈ 1.39 µM)
[1]
  susceptibility of the strains as indicated by MIC values: susceptible

## C[C@H]1COc2c(N3CCN(C)CC3)c(F)cc3c(=O)c(C(=O)O)cn1c23 [Levofloxacin, levofloxacin]
[1]; P. acnes strain V21A-1
  MIC: < 0.13 µg/mL
[1]; P. acnes strain V21A-5
  MIC: < 0.13 µg/mL
[1]; P. acnes strain V21A-8
  MIC: < 0.13 µg/mL
[1]; P. acnes strain V21B-1
  MIC: 0.5 µg/mL (≈ 1.38 µM)
[1]; P. acnes strain V21B-2
  MIC: 0.3 µg/mL (≈ 0.83 µM)
[1]; P. acnes strain V21B-3
  MIC: 0.5 µg/mL (≈ 1.38 µM)
[1]; P. acnes strain V21B-4
  MIC: 0.5 µg/mL (≈ 1.38 µM)
[1]; P. acnes strain V21B-5
  MIC: 0.5 µg/mL (≈ 1.38 µM)
[1]; P. acnes strain V21B-6
  MIC: 0.5 µg/mL (≈ 1.38 µM)
[1]; P. acnes strain V21B-7
  MIC: 0.3 µg/mL (≈ 0.83 µM)
[1]; P. acnes strain V21B-8
  MIC: 0.5 µg/mL (≈ 1.38 µM)

## CCC[C@@H]1C[C@@H](C(=O)N[C@@H]([C@H]2O[C@H](SC)[C@H](O)[C@@H](O)[C@H]2O)[C@H](C)Cl)N(C)C1 [Clindamycin, clindamycin]
[2]; [4]
  MIC: 1 to 8 µg/mL (≈ 2.35 to 18.8 µM)
[2]; [5]
  MIC: 8 to 64 µg/mL (≈ 18.8 to 151 µM)
[2]; [6]
  MIC: 8 to 32 µg/mL (≈ 18.8 to 75.3 µM)
[2]; [7]
  MIC: 16 to 64 µg/mL (≈ 37.6 to 151 µM)
[2]; [8]
  MIC: 1 µg/mL (≈ 2.35 µM)
[2]; [9]
  MIC: 1 to 2 µg/mL (≈ 2.35 to 4.71 µM)
[2]; [10]
  MIC: 0.5 to 2 µg/mL (≈ 1.18 to 4.71 µM)
[2]; [11]
  MIC: 1 to 2 µg/mL (≈ 2.35 to 4.71 µM)
[2]; [12]
  MIC: 16 to 32 µg/mL (≈ 37.6 to 75.3 µM)
[2]; [13]
  MIC: 16 to 64 µg/mL (≈ 37.6 to 151 µM)
[2]; [14]
  MIC: 16 to 64 µg/mL (≈ 37.6 to 151 µM)
[2]; [15]
  MIC: 32 to 64 µg/mL (≈ 75.3 to 151 µM)
[2]; [16]
  MIC: 16 to 64 µg/mL (≈ 37.6 to 151 µM)
[2]; [17]
  MIC: 16 to 64 µg/mL (≈ 37.6 to 151 µM)
[2]; [18]
  MIC: 16 to 64 µg/mL (≈ 37.6 to 151 µM)
[1]; P. acnes strain V21A-1
  MIC: 1 to 8 µg/mL (≈ 2.35 to 18.8 µM)
[1]; P. acnes strain V21A-2
  MIC: 8 to 64 µg/mL (≈ 18.8 to 151 µM)
[1]; P. acnes strain V21A-3
  MIC: 8 to 32 µg/mL (≈ 18.8 to 75.3 µM)
[1]; P. acnes strain V21A-5
  MIC: 1 µg/mL (≈ 2.35 µM)
[1]; P. acnes strain V21A-6
  MIC: 1 to 2 µg/mL (≈ 2.35 to 4.71 µM)
[1]; P. acnes strain V21A-7
  MIC: 0.5 to 2 µg/mL (≈ 1.18 to 4.71 µM)
[1]; P. acnes strain V21A-8
  MIC: 1 to 2 µg/mL (≈ 2.35 to 4.71 µM)
[1]; P. acnes strain V21A-9
  MIC: 16 to 32 µg/mL (≈ 37.6 to 75.3 µM)
[1]; P. acnes strain V21B-1
  MIC: 64 µg/mL (≈ 151 µM)
[1]; P. acnes strain V21B-2
  MIC: 16 to 64 µg/mL (≈ 37.6 to 151 µM)
[1]; P. acnes strain V21B-3
  MIC: 64 µg/mL (≈ 151 µM)
[1]; P. acnes strain V21B-4
  MIC: 32 to 64 µg/mL (≈ 75.3 to 151 µM)
[1]; P. acnes strain V21B-5
  MIC: 1 to 4 µg/mL (≈ 2.35 to 9.41 µM)
[1]; P. acnes strain V21B-6
  MIC: 16 to 64 µg/mL (≈ 37.6 to 151 µM)
[1]; P. acnes strain V21B-7
  MIC: 16 to 64 µg/mL (≈ 37.6 to 151 µM)
[1]; P. acnes strain V21B-8
  MIC: 16 to 64 µg/mL (≈ 37.6 to 151 µM)
